For seven substances, IC50 results are on record in BindingDB's records for doi:10.1021/acs.jmedchem.5b00109 (Peking Union Medical College, 2015).

What is called IC50 is the concentration needed to halve the response being measured. Low readings indicate inhibition by little substance, high ones a need for much substance.

The nature of this test: Inhibition of HIV-1 HXB2 gp41 N-terminal heptad repeat-mediated fusion between infected HL2/3 cells to target TZM-bl cells after 6 hrs by luciferase reporter gene assay. In general terms: A reporter such as luciferase makes a cellular process visible.

Regarding H-MTWEAWDRAIAEYAARIEALIR-OH, it took 59 nM to reach half-maximal inhibition (IC50). As to “H-MTWEAWDRAIAEYAARIEALIRAAQEQQEKNEAALREL-OH”, the IC50 was 0.86 nM. As to H-MTWEEWDKKIEEYTKKIEELI-OH, the IC50 worked out at 2.2 nM.

Consider H-MTWEEWDKKIEEYTKKIEELIKKS-OH, for which the IC50 came out at 2.3 nM. For H-TTWEAWDRAIAEYAARIEALIR-OH the value was greater than 2250 nM; for H-TTWEEWDKKIEEYTKKIEELIKKS-OH, 18 nM. The substance “H-WEAWDRAIAEYAARIEALIRAAQEQQEKNEAALREL-OH” returned a concentration for half-maximal inhibition (IC50) of 0.34 nM.
